From publication PMC13385394, “Cryo-EM Structure of the TRPC1/5 Heteromer Enables Design of Antidepressant and Anxiolytic Drug with Reduced Side Effects” (Nature Communications, 2026)
Entries after “also recorded” stand apart in the source; their conditions may differ.

Key:
[1] = test system: CUMS-induced depressive-like behaviors; assay: Sucrose preference test (SPT) in CUMS model; format: in vivo, mouse; details: CUMS mice
Method: (§1) The stressors included food and water deprivation, foot shock, wet bedding, cage tilting, restraint, shaking, and olfactory stimulation. These seven stressors were randomly applied each week to ensure unpredictability. The stress induction was maintained continuously for 28 days. Following model establishment, the tail suspension test (TST) was performed to confirm the successful induction of depressive-like behaviors. Mice that met the criteria were randomly assigned to experimental groups.
Acute Treatment: A single dose of the test compound was administered, followed by the sucrose preference test (SPT).
Chronic Treatment: Mice were treated daily for 14 consecutive days. The SPT was conducted on day 11, and the forced swimming test (FST) was performed on day 14.
Mice were acclimated to 1% sucrose solution and plain water for 2 days. On the second day, the positions of the sucrose solution and water were swapped to eliminate positional bias. […] Mice were provided with pre-weighed 1% sucrose solution and plain water. […] Sucrose preference (%) was calculated as Sucrose Preference = A/(A + B)×100.

[2] = test system: CUMS-induced depressive-like behaviors; assay: Forced swim test (FST) in CUMS model; format: in vivo, mouse; details: CUMS mice; 14 days once-daily oral; vs vehicle
Method: as §1, with “groups. Chronic Treatment: Mice were treated daily for 14 consecutive days. The SPT was conducted on day 11, and the forced swimming test (FST) was performed on day 14.” for “groups.”

[3] = target: T1, TRPC1/5 (Homo sapiens, UniProt P48995+Q9UL62); assay: Calcium flux assay (Calcium 5 kit, EA 100 nM), hTRPC1 + hTRPC5 in HEK293T cells; format: cell-based; details: calcium flux screening, 10 μM
T1 construct: Full-length, non-tagged hTRPC1 and hTRPC5 constructs are used for calcium flux assays; expressed in transfected cells; host or cells: HEK293T
Method: Full-length, non-tagged hTRPC1 and hTRPC5 constructs are used for calcium flux assays. hTRPC5 is transfected alone or co-transfected with hTRPC1 into HEK293T cells (70–80% confluency) using PEI as the transfection reagent.
The culture medium is removed, and 100 µL of loading buffer (Calcium 5 Assay Kit) is added to each well, followed by a 1-h incubation at 37 °C in 5% CO2. Five minutes before measurement, molecules are added to each well at a final concentration of 10 µM under light-sensitive conditions.

[4] = target: T2, hTRPC5 (Homo sapiens, UniProt Q9UL62); assay: Calcium flux assay (Calcium 5 kit, EA 100 nM), hTRPC5 in HEK293T cells; format: cell-based; details: calcium flux screening, 10 μM
T2 construct: Full-length, non-tagged hTRPC1 and hTRPC5 constructs are used for calcium flux assays; expressed in transfected cells; host or cells: HEK293T
T2 sequence (Q9UL62 1-973): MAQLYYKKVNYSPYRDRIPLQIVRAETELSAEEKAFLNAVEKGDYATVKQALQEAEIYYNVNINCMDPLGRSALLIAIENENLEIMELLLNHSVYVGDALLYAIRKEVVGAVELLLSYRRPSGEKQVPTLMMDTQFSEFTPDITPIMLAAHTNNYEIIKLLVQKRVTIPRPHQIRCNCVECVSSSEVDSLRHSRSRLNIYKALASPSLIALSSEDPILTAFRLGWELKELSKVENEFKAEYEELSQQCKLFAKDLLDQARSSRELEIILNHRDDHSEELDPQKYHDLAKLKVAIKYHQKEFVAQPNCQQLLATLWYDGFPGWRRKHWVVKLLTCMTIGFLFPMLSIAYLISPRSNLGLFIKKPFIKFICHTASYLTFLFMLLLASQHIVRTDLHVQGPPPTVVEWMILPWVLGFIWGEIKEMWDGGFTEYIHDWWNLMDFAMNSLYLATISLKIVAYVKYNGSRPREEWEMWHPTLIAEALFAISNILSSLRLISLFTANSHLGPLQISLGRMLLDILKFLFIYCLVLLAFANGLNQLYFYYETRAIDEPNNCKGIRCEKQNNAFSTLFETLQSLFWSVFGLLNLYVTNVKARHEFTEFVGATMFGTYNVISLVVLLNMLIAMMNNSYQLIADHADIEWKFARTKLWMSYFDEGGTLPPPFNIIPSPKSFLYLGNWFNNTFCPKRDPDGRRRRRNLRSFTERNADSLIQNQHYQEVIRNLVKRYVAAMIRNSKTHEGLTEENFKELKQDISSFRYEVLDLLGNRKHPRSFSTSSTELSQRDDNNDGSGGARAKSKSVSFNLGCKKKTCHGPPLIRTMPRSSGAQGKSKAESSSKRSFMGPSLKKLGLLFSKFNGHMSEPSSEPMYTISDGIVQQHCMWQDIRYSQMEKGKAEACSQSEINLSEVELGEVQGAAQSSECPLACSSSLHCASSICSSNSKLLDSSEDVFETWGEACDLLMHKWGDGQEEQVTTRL
Method: Five minutes before measurement, molecules are added to each well at a final concentration of 10 µM under light-sensitive conditions.

[5] = test system: diet-induced obesity (DIO) mice; assay: Diet-induced obesity (DIO) model, body weight and food intake; format: in vivo, mouse; details: 11 days once daily, HC-070 and JD03-02 10 mg/kg i.g., Semaglutide 0.123 mg/kg s.c.
Method: A maximum of five mice were housed per cage during the acclimatization period, and three mice per cage during the experimental period. […] The day of administration was defined as day 1 (D1) of the experiment, with a single dose/day administered for 11 consecutive days. Daily observations were made on the animals’ general condition. Body weight was measured on days 1, 3, 5, 7, 9, and 11 post-administrations. Food intake was measured on days 1, 3, 5, 7, and 9 post-administrations by calculating the difference between the amount of food provided and the amount remaining in the cage, divided by the number of animals in the cage to determine the average food intake per mouse. The cumulative food intake during the experiment was calculated by summing the food intake measurements taken on different days.

[6] = test system: healthy C57BL/6J mice; details: mouse, in vivo
Method: The Open-Field test (OFT) was utilized to evaluate the autonomous behavior, exploratory tendencies, and anxiety levels of experimental animals in a new environment. Each mouse was placed at the center of the container and given a 10-min exploration period. Before the test, the animals were acclimated to the experimental setting for 60 min. […] This cleaning procedure aimed to reduce the risk of contamination and prevent any misleading experimental results due to olfactory stimuli. Anxiety levels and exploratory behavior were assessed by measuring the time spent in the central area, the number of entries into the central area, and the total distance traveled by the mice.

[7] = test system: mCPP-induced anxiety; assay: Open-field test (OFT), mCPP-induced anxiety model; details: mCPP-induced anxiety-like mice; single dose
[8] = target: T3, TRPC5 homomers (Homo sapiens, UniProt Q9UL62); assay: Whole-cell patch-clamp, inhibition of EA-activated TRPC5 homomers; format: cell-based; details: whole-cell patch-clamp
T3 construct: full length hTRPC5 (TRPC5 wild type (WT)); expressed in transfected cells; host or cells: HEK293T
T3 sequence (Q9UL62 1-973): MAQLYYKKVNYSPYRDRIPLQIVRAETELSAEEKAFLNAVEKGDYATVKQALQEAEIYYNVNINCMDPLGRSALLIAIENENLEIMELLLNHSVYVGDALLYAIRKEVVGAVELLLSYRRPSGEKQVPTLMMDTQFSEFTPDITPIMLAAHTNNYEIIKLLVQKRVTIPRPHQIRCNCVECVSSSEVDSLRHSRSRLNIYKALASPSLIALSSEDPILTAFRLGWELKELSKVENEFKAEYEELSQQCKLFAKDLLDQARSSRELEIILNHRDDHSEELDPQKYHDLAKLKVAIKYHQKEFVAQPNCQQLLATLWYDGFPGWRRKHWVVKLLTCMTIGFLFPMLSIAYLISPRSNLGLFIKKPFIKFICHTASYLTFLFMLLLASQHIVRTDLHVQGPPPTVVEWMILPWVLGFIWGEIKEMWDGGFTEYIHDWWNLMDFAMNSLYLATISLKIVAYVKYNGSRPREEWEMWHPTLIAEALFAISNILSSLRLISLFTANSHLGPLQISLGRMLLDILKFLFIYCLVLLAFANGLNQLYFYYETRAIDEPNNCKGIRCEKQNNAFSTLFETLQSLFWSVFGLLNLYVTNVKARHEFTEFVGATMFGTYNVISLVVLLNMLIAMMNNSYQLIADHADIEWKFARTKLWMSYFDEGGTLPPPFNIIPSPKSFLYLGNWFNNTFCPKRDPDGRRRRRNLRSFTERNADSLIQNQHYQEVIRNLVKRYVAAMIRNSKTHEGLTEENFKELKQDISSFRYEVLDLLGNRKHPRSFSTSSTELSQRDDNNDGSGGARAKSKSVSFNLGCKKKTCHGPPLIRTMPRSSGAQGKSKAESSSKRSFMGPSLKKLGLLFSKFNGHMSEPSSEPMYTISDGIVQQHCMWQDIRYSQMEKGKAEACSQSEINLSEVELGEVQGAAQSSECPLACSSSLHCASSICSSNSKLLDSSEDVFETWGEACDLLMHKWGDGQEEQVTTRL

[9] = target: T4, TRPC1/5 heteromers (Homo sapiens, UniProt P48995+Q9UL62); assay: Whole-cell patch-clamp, inhibition of EA-activated TRPC1/5 heteromers; format: cell-based; details: whole-cell patch-clamp; read-out: IC50, TRPC1/C5
T4 construct: wild type plasmids full-length hTRPC1 (WT) and full-length hTRPC5 (WT); expressed in transfected cells; host or cells: HEK293T
From the text: (§2) The full-length hTRPC5 or truncated mTRPC5, and the full-length hTRPC1 constructs was respectively co-transfected in a plasmid ration 1:3 (w/w) into HEK293T cells (from the ATCC). As previously described, a mCherry was inserted into TRPC5 constructs and a GFP was inserted at the C terminus of TRPC1. Therefore, Cells with red and green fluorescence were selected for whole-cell patch recordings (HEKA EPC10 amplifier, […] software (https://www.heka.com/downloads/downloads_main.html#down_patchmaster)). A 1-s ramp protocol from −100 to +100 mV was applied at a frequency of 0.2 Hz. Signals were sampled at 50 kHz and filtered at 2.9 kHz. The pipette solution contained 130 mM CsCl, 1 mM MgCl2, 5.7 mM CaCl2, 10 mM EGTA, and 10 mM Hepes (calculated free Ca^2+, 200 nM), and the pH was titrated to 7.2 using CsOH[40]. The standard bath solution contained 140 mM NaCl, 5 mM KCl, 1 mM MgCl2, 2 mM CaCl2, 10 mM Hepes, and 10 mM D-glucose, and the pH was adjusted to 7.4 with NaOH (1 M). The recording chamber (150 μL) was perfused at a rate of ~2 mL/min. All recordings were performed at room temperature.

[10] = target: T3, TRPC5 homomers; assay: Whole-cell patch-clamp, agonist activation of TRPC5 homomers in HEK293T cells; format: cell-based
[11] = target: T4, TRPC1/5 heteromers; assay: Whole-cell patch-clamp, agonist activation of TRPC1/5 (TRPC1 and TRPC5 co-transfected) in HEK293T cells; format: cell-based
From the text: as §2

[12] = target: the molecule itself; assay: cryo-EM structure; TRPC1/5 heteromer co-expressed, purified in tandem on Strep-Tactin and anti-Flag M2 resin and Superose 6 (25 mM Hepes pH 7.5, 150 mM NaCl, 1 mM DTT, LMNG/CHS/GDN); single-particle cryo-EM, 2.84 Å overall

T1 sequence (P48995 whole entry, one chain of several): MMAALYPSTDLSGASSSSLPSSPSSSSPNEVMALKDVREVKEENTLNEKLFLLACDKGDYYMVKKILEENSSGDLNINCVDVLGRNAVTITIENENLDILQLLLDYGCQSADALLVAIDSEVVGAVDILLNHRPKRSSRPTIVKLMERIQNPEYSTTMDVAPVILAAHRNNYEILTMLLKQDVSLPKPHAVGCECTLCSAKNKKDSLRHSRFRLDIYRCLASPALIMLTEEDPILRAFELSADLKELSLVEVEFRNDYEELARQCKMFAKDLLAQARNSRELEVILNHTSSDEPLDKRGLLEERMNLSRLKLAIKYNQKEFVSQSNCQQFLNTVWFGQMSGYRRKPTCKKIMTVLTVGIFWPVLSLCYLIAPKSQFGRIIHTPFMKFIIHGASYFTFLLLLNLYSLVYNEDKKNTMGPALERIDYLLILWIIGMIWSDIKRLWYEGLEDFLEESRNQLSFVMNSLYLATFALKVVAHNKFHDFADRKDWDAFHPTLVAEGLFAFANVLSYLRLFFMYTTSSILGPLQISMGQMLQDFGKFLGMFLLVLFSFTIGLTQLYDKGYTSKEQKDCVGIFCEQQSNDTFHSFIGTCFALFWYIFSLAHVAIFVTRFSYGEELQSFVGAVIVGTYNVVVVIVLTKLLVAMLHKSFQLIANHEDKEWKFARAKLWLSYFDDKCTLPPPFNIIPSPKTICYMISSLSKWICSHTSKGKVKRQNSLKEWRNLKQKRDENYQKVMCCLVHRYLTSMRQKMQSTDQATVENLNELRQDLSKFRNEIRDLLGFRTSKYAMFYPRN
T4 sequence (P48995 whole entry, one chain of several): as above

Molecule: CNCCC(Oc1ccc(C(F)(F)F)cc1)c1ccccc1 (centres unmarked) [fluoxetine, reference compound]
- sucrose intake (SPT), repeated dosing ([1]; 11 days once-daily oral, vs vehicle): significantly improved sucrose intake
- sucrose preference (SPT), single dose ([1]; single oral dose, JD03-02 30 mg/kg): no immediate effect; also recorded: ineffective
- immobility (FST), repeated dosing [2]: reduced immobility

Molecule: Cn1c(=O)n(CCN2CCCC2)c(=O)c2c1nc(Oc1cccc(Cl)c1)n2Cc1ccc(Cl)cc1 [H01]
- inhibition of TRPC1/5 heteromers (in words) [3]: moderate inhibition
- inhibitory activity toward TRPC5 homomers (in words) [4]: markedly reduced inhibitory activity

Molecule: Semaglutide [reference compound]
- body weight [5]: effectively reduced both weight and appetite
- food intake [5]: effectively reduced both weight and appetite

Molecule: Cn1c(=O)n(CCNCc2ccccc2)c(=O)c2c1nc(Oc1cccc(Cl)c1)n2Cc1ccc(Cl)cc1 [H03]
- inhibitory activity toward TRPC5 homomers (in words) [4]: restored TRPC5 homomer inhibition

Molecule: CC(C)NCCn1c(=O)c2c(nc(Oc3cccc(Cl)c3)n2Cc2ccc(Cl)cc2)n(C)c1=O [H02]
- inhibition of TRPC1/5 heteromers (in words) [3]: moderate inhibition
- inhibitory activity toward TRPC5 homomers (in words) [4]: markedly reduced inhibitory activity

Molecule: Cn1c(=O)n(CCCO)c(=O)c2c1nc(Oc1cccc(Cl)c1)n2Cc1ccc(Cl)cc1 [HC-070]
- OFT total distance traveled [6]: increased total distance traveled
- body weight [5]: significantly increased body weight
- food intake [5]: elevated food intake

Molecule: CN1C(=O)CN=C(c2ccccc2)c2cc(Cl)ccc21 [diazepam, reference compound]
- OFT total distance traveled [7]: no significant effect

Molecule: CN(C)CCCCCCn1c(=O)c2c(nc(Oc3cccc(Cl)c3)n2Cc2ccc(Cl)cc2)n(C)c1=O [H10]
- HillSlope, TRPC5 [8]: 0.3841
- IC50 [8]: 503 nM
- IC50 [9]: 2.57 nM

Molecule: Cn1c(=O)n(CCCO)c(=O)c2c1nc(Oc1ccc(Cl)c(OC(F)(F)F)c1)n2Cc1ccc(Cl)cc1 [AM237]
- activation of TRPC5 homomers (in words) [10]: activates TRPC5 homomers
- activation of TRPC1/5 heteromers (in words) [11]: not TRPC1/5 heteromers

B1: C-terminal truncated (210 residues) mouse TRPC5 with triple Flag tag and MBP on its N terminus (domain or fragment, UniProt Q9QX29 1-765, looked up)
chain: MAQLYYKKVNYSPYRDRIPLQIVRAETELSAEEKAFLSAVEKGDYATVKQALQEAEIYYNVNINCMDPLGRSALLIAIENENLEIMELLLNHSVYVGDALLYAIRKEVVGAVELLLSYRKPSGEKQVPTLMMDTQFSEFTPDITPIMLAAHTNNYEIIKLLVQKRVTIPRPHQIRCNCVECVSSSEVDSLRHSRSRLNIYKALASPSLIALSSEDPILTAFRLGWELKELSKVENEFKAEYEELSQQCKLFAKDLLDQARSSRELEIILNHRDDHSEELDPQKYHDLAKLKVAIKYHQKEFVAQPNCQQLLATLWYDGFPGWRRKHWVVKLLTCMTIGFLFPMLSIAYLISPRSNLGLFIKKPFIKFICHTASYLTFLFMLLLASQHIVRTDLHVQGPPPTVVEWMILPWVLGFIWGEIKEMWDGGFTEYIHDWWNLMDFAMNSLYLATISLKIVAYVKYNGSRPREEWEMWHPTLIAEALFAISNILSSLRLISLFTANSHLGPLQISLGRMLLDILKFLFIYCLVLLAFANGLNQLYFYYETRAIDEPNNCKGIRCEKQNNAFSTLFETLQSLFWSVFGLLNLYVTNVKARHEFTEFVGATMFGTYNVISLVVLLNMLIAMMNNSYQLIADHADIEWKFARTKLWMSYFDEGGTLPPPFNIIPSPKSFLYLGNWFNNTFCPKRDPDGRRRRHNLRSFTERHADSLIQNQHYQEVIRNLVKRYVAAMIRNSKTNEGLTEENFKELKQDISSFRYEVLDLLGNRK
notes: TRPC5, mouse, lacking the 210 C-terminal residues; Three copies of this chain stand in the heterotetramer with one TRPC1 subunit; The results call the complex 'human TRPC1/5' although the TRPC5 construct is mouse; also called Cryo-TRPC5; truncated mTRPC5; not shown: triple Flag, N-terminal, kept
- binding result [12]: binds
